In US20210317140A1, “Heterocyclic Compounds and Methods of Use” (MEDIVATION TECHNOLOGIES, INC, priority 2013, published 2021):
“And” between values parts separate entries of the source, which are not always exact repeats. Equal values may be shown once.

What was measured:
BTK = target: T1, BTK (Homo sapiens, UniProt Q06187); assay: BTK kinase assay (HotSpot, 33P ATP); format: biochemical; conditions: for BTK @ 0.01 μM (% Inh): 0.01 μM compound; for BTK @ 0.01 μM (% Inh) / BTK @ 0.1 μM (% Inh) / BTK @ 1 μM (% Inh): 10 μM ATP; for BTK @ 0.1 μM (% Inh): 0.1 μM compound; for IC50: 10 dose IC50, 10 μM ATP; for BTK @ 1 μM (% Inh): 1 μM compound
T1 construct: purchased Reaction Biology Corporation
Method in brief: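 In 20 mM Hepes (pH 7.5) with 10 mM MgCl2, 1 mM EGTA, 0.1 mM Na3VO4, 2 mM DTT, 0.02% Brij35, 0.02 mg/mL BSA and 1% DMSO, kinase and substrate were exposed to ten compound doses for 15–20 min.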

PI3Kδ = target: T2, PI3Kδ (Homo sapiens, UniProt O00329); assay: PI3Kδ kinase assay (HTRF, PIP3 detection); format: biochemical; conditions: for PI3Kδ @ 0.01 μM (% Inh): 0.01 μM compound; for PI3Kδ @ 0.01 μM (% Inh) / PI3Kδ @ 0.1 μM (% Inh) / PI3Kδ @ 1 μM (% Inh): 10 μM ATP; for PI3Kδ @ 0.1 μM (% Inh): 0.1 μM compound; for IC50: 10 dose IC50, 10 μM ATP; for PI3Kδ @ 1 μM (% Inh): 1 μM compound
T2 construct: purchased Reaction Biology Corporation
Method in brief: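 10-dose HTRF assay; kinase preincubated with compound 10 min at RT, then reacted with 10 μM PIP2 and 10 μM ATP for 30 min at 30 °C in HEPES pH 7.0 buffer. PIP3 product displaces biotin-PIP3 from the Eu/APC complex; signal converted to PIP3 via standard curve, IC50 by nonlinear regression.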

T2 sequence (O00329 whole entry): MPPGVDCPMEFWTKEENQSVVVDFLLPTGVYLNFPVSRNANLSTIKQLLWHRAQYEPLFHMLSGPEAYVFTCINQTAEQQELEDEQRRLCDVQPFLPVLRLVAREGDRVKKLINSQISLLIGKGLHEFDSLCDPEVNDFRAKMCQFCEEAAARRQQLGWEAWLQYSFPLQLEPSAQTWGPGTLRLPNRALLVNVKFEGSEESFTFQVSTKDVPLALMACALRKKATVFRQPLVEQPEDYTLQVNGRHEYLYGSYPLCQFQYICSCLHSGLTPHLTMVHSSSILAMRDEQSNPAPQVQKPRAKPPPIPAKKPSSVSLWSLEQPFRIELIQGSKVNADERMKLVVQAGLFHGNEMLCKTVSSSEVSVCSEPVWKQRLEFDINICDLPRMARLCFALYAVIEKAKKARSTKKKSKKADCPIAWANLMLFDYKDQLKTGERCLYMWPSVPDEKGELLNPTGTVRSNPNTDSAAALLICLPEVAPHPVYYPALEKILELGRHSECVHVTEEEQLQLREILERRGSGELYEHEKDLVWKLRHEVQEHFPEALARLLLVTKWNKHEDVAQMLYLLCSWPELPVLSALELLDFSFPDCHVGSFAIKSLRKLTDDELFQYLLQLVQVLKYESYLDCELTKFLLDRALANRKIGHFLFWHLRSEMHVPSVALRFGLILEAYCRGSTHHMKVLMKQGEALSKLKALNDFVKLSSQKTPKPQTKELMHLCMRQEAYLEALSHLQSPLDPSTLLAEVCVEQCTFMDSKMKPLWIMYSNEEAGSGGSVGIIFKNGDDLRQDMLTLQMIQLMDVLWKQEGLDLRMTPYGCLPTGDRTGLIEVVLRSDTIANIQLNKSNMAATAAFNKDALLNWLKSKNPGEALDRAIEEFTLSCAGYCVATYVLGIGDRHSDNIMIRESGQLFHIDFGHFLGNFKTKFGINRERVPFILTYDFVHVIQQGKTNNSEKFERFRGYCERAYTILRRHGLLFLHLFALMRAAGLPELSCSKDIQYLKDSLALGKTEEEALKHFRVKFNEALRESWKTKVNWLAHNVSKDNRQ
T2 sequence (P27986 whole entry partner): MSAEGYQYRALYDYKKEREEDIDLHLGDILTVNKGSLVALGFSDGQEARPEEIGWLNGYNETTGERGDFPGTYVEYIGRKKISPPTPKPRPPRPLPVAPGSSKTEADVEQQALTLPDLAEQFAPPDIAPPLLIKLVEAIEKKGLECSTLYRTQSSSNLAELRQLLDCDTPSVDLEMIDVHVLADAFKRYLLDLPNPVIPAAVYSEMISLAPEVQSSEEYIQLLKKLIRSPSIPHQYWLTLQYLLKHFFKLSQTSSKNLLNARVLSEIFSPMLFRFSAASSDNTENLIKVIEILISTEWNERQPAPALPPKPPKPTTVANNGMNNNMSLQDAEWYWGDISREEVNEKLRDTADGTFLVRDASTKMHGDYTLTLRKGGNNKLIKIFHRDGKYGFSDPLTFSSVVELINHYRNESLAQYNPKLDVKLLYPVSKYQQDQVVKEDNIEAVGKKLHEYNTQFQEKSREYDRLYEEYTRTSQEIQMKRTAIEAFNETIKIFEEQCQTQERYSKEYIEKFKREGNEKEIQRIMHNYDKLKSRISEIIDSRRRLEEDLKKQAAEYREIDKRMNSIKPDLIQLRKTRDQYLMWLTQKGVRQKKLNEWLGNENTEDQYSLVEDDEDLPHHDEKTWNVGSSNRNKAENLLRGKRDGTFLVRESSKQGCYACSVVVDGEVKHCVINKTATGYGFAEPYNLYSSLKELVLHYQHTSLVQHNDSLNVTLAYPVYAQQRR
T1 sequence (Q06187 whole entry): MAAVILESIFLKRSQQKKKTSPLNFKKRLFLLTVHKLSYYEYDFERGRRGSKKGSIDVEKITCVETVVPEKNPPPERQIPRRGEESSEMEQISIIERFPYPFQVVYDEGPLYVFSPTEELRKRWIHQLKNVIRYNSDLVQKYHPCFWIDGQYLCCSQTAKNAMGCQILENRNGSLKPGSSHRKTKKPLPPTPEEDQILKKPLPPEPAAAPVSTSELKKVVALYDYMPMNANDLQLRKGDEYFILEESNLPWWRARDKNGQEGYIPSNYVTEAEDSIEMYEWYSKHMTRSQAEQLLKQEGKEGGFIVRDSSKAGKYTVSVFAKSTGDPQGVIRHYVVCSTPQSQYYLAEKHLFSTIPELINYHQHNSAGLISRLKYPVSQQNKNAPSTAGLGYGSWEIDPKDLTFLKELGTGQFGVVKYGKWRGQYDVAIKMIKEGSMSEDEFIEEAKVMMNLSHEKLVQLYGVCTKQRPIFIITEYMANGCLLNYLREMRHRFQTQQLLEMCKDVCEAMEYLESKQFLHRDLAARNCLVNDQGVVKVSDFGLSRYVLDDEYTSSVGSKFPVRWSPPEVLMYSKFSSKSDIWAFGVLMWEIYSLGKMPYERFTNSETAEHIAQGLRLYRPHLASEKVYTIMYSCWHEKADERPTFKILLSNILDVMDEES

| BTK @ 0.01 μM (% Inh) (BTK) | BTK @ 0.1 μM (% Inh) (BTK) | IC50 (BTK) | PI3Kδ @ 0.01 μM (% Inh) (PI3Kδ) | PI3Kδ @ 0.1 μM (% Inh) (PI3Kδ) | IC50 (PI3Kδ) | BTK @ 1 μM (% Inh) (BTK) | PI3Kδ @ 1 μM (% Inh) (PI3Kδ) | SMILES |
| --- | --- | --- | --- | --- | --- | --- | --- | --- |
| 17.69 % Inh | 56.81 % Inh | 79.6 nM | 17.4 % Inh | 39.74 % Inh | 167 nM |  |  | Nc1ncnc2c1c(-c1ccc3c(c1)NCCO3)nn2C1Cc2ccccc2C1 [Compound No. 99, 1-(2,3-dihydro-1H-inden-2-yl)-3-(3,4-dihydro-2H-1,4-benzoxazin-6-yl)-1H-pyrazolo[3,4-d]pyrimidin-4-amine] |
|  | 12.61 % Inh |  |  | 48.6 % Inh |  |  |  | Nc1ncnc2c1c(-c1ccc(O)c(O)c1)nn2C1CCc2ccccc2C1 (stereo not shown) [compound 1, 4-(4-amino-1-tetralin-2-yl-pyrazolo[3,4-d]pyrimidin-3-yl)benzene-1,2-diol] |
|  |  | 584 nM |  |  | 1830 nM |  |  | COc1cc(F)cc(-c2nn(C3CCc4ccccc43)c3ncnc(N)c23)c1 (stereo not shown) [compound 4, 1-(2,3-dihydro-1H-inden-1-yl)-3-(3-fluoro-5-methoxyphenyl)-1H-pyrazolo[3,4-d]pyrimidin-4-amine] |
|  | 26.26 % Inh | 1970 nM and 1100 nM |  | 25.0 % Inh | 2790 nM and 1220 nM | 76.16 % Inh | 54.63 % Inh | COc1cc(F)cc(-c2nn(C3Cc4ccccc4C3)c3ncnc(N)c23)c1 [compound 5, 1-(2,3-dihydro-1H-inden-2-yl)-3-(3-fluoro-5-methoxyphenyl)-1H-pyrazolo[3,4-d]pyrimidin-4-amine] |
|  |  | 891 nM |  |  | 1340 nM |  |  | COc1cc(F)cc(-c2nn(C3CCc4ccccc4C3)c3ncnc(N)c23)c1 (stereo not shown) [compound 7, 3-(3-fluoro-5-methoxyphenyl)-1-(1,2,3,4-tetrahydronaphthalen-2-yl)-1H-pyrazolo[3,4-d]pyrimidin-4-amine] |
|  | 58.79 % Inh |  |  | 22.39 % Inh |  |  |  | Nc1ncnc2c1c(-c1ccc(F)c(O)c1)nn2C1CCc2ccccc21 (stereo not shown) [compound 10, 5-(4-amino-1-indan-1-yl-pyrazolo[3,4-d]pyrimidin-3-yl)-2-fluoro-phenol] |
|  | 22.06 % Inh |  |  | 45.08 % Inh |  |  |  | Nc1ncnc2c1c(-c1cc(O)cc(F)c1)nn2C1CCCc2ccccc21 (stereo not shown) [compound 11, 3-(4-amino-1-tetralin-1-yl-pyrazolo[3,4-d]pyrimidin-3-yl)-5-fluoro-phenol] |
|  | 31.62 % Inh |  |  | 6.22 % Inh |  |  |  | Nc1ncnc2c1c(-c1ccc(F)c(O)c1)nn2C1CCCc2ccccc21 (stereo not shown) [compound 12, 5-(4-amino-1-tetralin-1-yl-pyrazolo[3,4-d]pyrimidin-3-yl)-2-fluoro-phenol] |
|  |  | 293 nM |  |  | 39.6 nM |  |  | Nc1ncnc2c1c(-c1ccc(O)c(F)c1)nn2C1CCc2ccccc2C1 (stereo not shown) [compound 22, 4-(4-amino-1-(1,2,3,4-tetrahydronaphthalen-2-yl)-1H-pyrazolo[3,4-d]pyrimidin-3-yl)-2-fluorophenol] |
|  | 15.45 % Inh |  |  | 23.11 % Inh |  |  |  | COc1ncc(-c2nn(C3CCc4ccccc4C3)c3ncnc(N)c23)cc1F (stereo not shown) [compound 23, 3-(5-fluoro-6-methoxypyridin-3-yl)-1-(1,2,3,4-tetrahydronaphthalen-2-yl)-1H-pyrazolo[3,4-d]pyrimidin-4-amine] |
|  | 5.45 % Inh |  |  | 10.3 % Inh |  |  |  | Nc1ncnc2c1c(-c1ccc(O)nc1)nn2C1CCc2ccccc2C1 (stereo not shown) [compound 24, 5-(4-amino-1-(1,2,3,4-tetrahydronaphthalen-2-yl)-1H-pyrazolo[3,4-d]pyrimidin-3-yl)pyridin-2-ol] |
|  | 20.21 % Inh |  |  | 27.39 % Inh |  |  |  | Nc1ncnc2c1c(-c1ccc(Cl)nc1)nn2C1CCc2ccccc2C1 (stereo not shown) [compound 25, 3-(6-chloro-3-pyridyl)-1-tetralin-2-yl-pyrazolo[3,4-d]pyrimidin-4-amine] |
|  | 13.54 % Inh |  |  | 4.7 % Inh |  |  |  | NC(=O)c1cccc(-c2nn(C3CCc4ccccc4C3)c3ncnc(N)c23)c1 (stereo not shown) [compound 27, 3-(4-amino-1-tetralin-2-yl-pyrazolo[3,4-d]pyrimidin-3-yl)benzamide] |
|  | 14.0 % Inh |  |  | 15.27 % Inh |  |  |  | NC(=O)c1ccc(-c2nn(C3CCc4ccccc4C3)c3ncnc(N)c23)cc1 (stereo not shown) [compound 28, 4-(4-amino-1-tetralin-2-yl-pyrazolo[3,4-d]pyrimidin-3-yl)benzamide] |
|  | 35.16 % Inh | 217 nM |  | 64.19 % Inh | 13 nM |  |  | Nc1ncnc2c1c(-c1cc(O)cc(F)c1)nn2C1CCc2ccccc21 (stereo not shown) [compound 30, 3-(4-amino-1-indan-1-yl-pyrazolo[3,4-d]pyrimidin-3-yl)-5-fluoro-phenol] |
|  | 13.50 % Inh | 877 nM |  | 11.3 % Inh | 1490 nM |  |  | C=CC(=O)N1CC(n2nc(-c3cnc(OC)c(F)c3)c3c(N)ncnc32)Cc2cc(C)ccc21 (stereo not shown) [compound 32, 1-(3-(4-amino-3-(5-fluoro-6-methoxypyridin-3-yl)-1H-pyrazolo[3,4-d]pyrimidin-1-yl)-6-methyl-3,4-dihydroquinolin-1 (2H)-yl)prop-2-en-1-one] |
|  | 7.04 % Inh |  |  | 27.41 % Inh |  |  |  | COc1ccc(-c2nn(C3CCCc4ccccc43)c3ncnc(N)c23)cc1OC (stereo not shown) [compound 33, 3-(3,4-dimethoxyphenyl)-1-(1,2,3,4-tetrahydronaphthalen-1-yl)-1H-pyrazolo[3,4-d]pyrimidin-4-amine] |
|  | 23.12 % Inh |  |  | 51.63 % Inh |  |  |  | COc1ccc(-c2nn(C3CCc4ccccc43)c3ncnc(N)c23)cc1OC (stereo not shown) [compound 34, 1-(2,3-dihydro-1H-inden-1-yl)-3-(3,4-dimethoxyphenyl)-1H-pyrazolo[3,4-d]pyrimidin-4-amine] |
|  | 43.28 % Inh |  |  | 56.42 % Inh |  |  |  | Nc1ncnc2c1c(-c1ccc(Br)c(O)c1)nn2C1CCc2ccccc21 (stereo not shown) [compound 36, 5-[4-amino-1-(2,3-dihydro-1H-inden-1-yl)-1H-pyrazolo[3,4-d]pyrimidin-3-yl]-2-bromophenol] |
|  | 29.59 % Inh |  |  | 15.52 % Inh |  |  |  | Nc1ncnc2c1c(-c1ccc3cc[nH]c3c1)nn2C1CCc2ccccc21 (stereo not shown) [compound 37, 1-(2,3-dihydro-1H-inden-1-yl)-3-(1H-indol-6-yl)-1H-pyrazolo[3,4-d]pyrimidin-4-amine] |
|  | 15.94 % Inh |  |  | 7.33 % Inh |  |  |  | Nc1ncnc2c1c(-c1ccc3cc[nH]c3c1)nn2C1CCCc2ccccc21 (stereo not shown) [compound 38, 3-(1H-indol-6-yl)-1-(1,2,3,4-tetrahydronaphthalen-1-yl)-1H-pyrazolo[3,4-d]pyrimidin-4-amine] |
|  | 4.89 % Inh |  |  | 80.15 % Inh |  |  |  | Nc1ncnc2c1c(-c1cc(O)cc(F)c1)nn2C1CCCc2ccc(F)cc21 (stereo not shown) [compound 41, 3-[4-amino-1-(7-fluoro-1,2,3,4-tetrahydronaphthalen-1-yl)-1H-pyrazolo[3,4-d]pyrimidin-3-yl]-5-fluorophenol] |
|  | 41.05 % Inh | 422 nM |  | 73.20 % Inh | 65.7 nM | 82.76 % Inh | 98.33 % Inh | Nc1ncnc2c1c(-c1cc(O)cc(F)c1)nn2C1Cc2cc(F)ccc2C1=O (stereo not shown) [compound 51, 2-[4-amino-3-(3-fluoro-5-hydroxyphenyl)-1H-pyrazolo[3,4-d]pyrimidin-1-yl]-5-fluoro-2,3-dihydro-1H-inden-1-one] |
| 9.24 % Inh | 21.87 % Inh |  | 16.23 % Inh | 51.48 % Inh |  |  |  | Nc1ncnc2c1c(-c1cc(O)c(F)c(F)c1)nn2C1Cc2cc(F)ccc2C1=O (stereo not shown) [compound 127, 2-[4-amino-3-(3,4-difluoro-5-hydroxyphenyl)-1H-pyrazolo[3,4-d]pyrimidin-1-yl]-5-fluoro-2,3-dihydro-1H-inden-1-one] |
| 17.28 % Inh | 74.7 % Inh |  | −6.1 % Inh | 56.02 % Inh |  |  |  | Nc1ncnc2c1c(-c1cc(O)c(F)c(F)c1)c(Cl)n2C1Cc2ccccc2C1 [compound 134, 5-[4-amino-6-chloro-7-(2,3-dihydro-1H-inden-2-yl)-7H-pyrrolo[2,3-d]pyrimidin-5-yl]-2,3-difluorophenol] |
